Here are results for 21 compounds from patent US7998965B2, “Glutamate aggrecanase inhibitors” (Wyeth LLC, priority 2005, dated 2011).

Read-outs that look alike come from different tables or passages of the source.

As a reminder, the IC50 is the midpoint of a concentration-inhibition curve. In general, Ki refers to the dissociation constant of the complex between target and ligand, obtained from inhibition or displacement.

Assay [1] has as its target T1, purified recombinant human Aggrecanase-1 (rAgg1) (Homo sapiens, UniProt O75173).
T1 sequence (O75173 213-837): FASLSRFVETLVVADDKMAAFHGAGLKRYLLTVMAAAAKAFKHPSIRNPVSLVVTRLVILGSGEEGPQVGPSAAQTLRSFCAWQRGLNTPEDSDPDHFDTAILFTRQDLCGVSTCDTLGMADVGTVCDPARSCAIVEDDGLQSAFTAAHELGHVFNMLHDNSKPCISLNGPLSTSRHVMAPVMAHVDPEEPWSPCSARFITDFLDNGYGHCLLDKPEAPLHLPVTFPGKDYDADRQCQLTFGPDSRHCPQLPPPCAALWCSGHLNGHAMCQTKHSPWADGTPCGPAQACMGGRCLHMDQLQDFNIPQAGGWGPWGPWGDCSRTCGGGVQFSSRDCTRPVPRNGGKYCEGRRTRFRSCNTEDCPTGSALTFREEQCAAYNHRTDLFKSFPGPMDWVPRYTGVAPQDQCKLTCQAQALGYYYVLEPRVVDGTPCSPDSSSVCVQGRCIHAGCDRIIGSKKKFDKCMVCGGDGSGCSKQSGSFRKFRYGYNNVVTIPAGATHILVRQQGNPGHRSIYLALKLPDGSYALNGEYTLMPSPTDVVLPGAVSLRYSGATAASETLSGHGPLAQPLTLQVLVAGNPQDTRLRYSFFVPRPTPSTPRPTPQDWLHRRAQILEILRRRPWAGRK
Kind of assay: In vitro fluorescence screen for Aggrecanase-1 inhibitors. The format is biochemical. Also on record: Agg1 % at concentration: scale not given here. The note with it: for IC50: read-out: Agg1 IC50; for Ki: read-out: Ki Agg1.

The target of assay [2] is T2, purified recombinant human Aggrecanase-2 (Ag2t-Phe628-Strep) (Homo sapiens, UniProt Q9UNA0).
T2 construct: the form used is denoted as Ag2t-Phe628-Strep (MW=41,737)
T2 sequence (Q9UNA0 262-628): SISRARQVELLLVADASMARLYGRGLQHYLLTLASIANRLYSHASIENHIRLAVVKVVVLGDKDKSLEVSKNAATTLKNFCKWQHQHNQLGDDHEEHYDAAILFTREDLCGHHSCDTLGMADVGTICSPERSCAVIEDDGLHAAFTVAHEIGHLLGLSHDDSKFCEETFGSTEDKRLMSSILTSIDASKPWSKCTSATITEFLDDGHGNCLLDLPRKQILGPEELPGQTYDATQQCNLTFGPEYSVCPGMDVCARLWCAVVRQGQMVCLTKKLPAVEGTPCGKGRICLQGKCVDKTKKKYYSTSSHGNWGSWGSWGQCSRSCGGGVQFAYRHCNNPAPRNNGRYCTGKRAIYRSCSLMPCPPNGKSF
In words: In vitro fluorescence screen for Aggrecanase-2 inhibitors. The format is biochemical. The following applies: for IC50: read-out: Agg 2 IC50; for Ki: read-out: Ki Agg2.

As for `CC(C)(Cc1ccccc1)NC(=O)[C@H](CCC(=O)O)NC(=O)c1ccc(-c2ccc(COc3cc(C(F)(F)F)cc(C(F)(F)F)c3)cc2)cc1` [Example 15O, N^2-[(4′-{[3,5-bis(trifluoromethyl)phenoxy]methyl}biphenyl-4-yl)carbonyl]-N-(1,1-dimethyl-2-phenylethyl)-L-α-glutamine], the IC50 in assay [1] (Table 3) turned out to be 52 nM; in assay [2] (Table 3), 3130 nM.

Consider `CC(C)(Cc1ccc(F)cc1)NC(=O)[C@H](CCC(=O)O)NC(=O)c1ccc(-c2ccc3c(c2)OCC3)cc1` [Example 8BBBBBBBB, N^2-[4-(2,3-dihydro-1-benzofuran-6-yl)benzoyl]-N-[2-(4-fluorophenyl)-1,1-dimethylethyl]-L-α-glutamine], for which the IC50 in assay [1] (Table 3) was 300 nM; in assay [2] (Table 3) it was 200 to 600 nM.

Take `CC(C)(Cc1ccccc1)NC(=O)[C@H](CCC(=O)O)NC(=O)c1ccc(-c2ccc(Cl)s2)nc1` [N^2-{[6-(5-chloro-2-thienyl)pyridin-3-yl]carbonyl}-N-(1,1-dimethyl-2-phenylethyl)-L-α-glutamine]: the results for the IC50 in assay [1] (Table 3) and in assay [2] (Table 3) were 20 to 70 nM and 100 to 300 nM, respectively. Besides, the Ki in assay [1] (Table 3) was found to be 37.6 nM; in assay [2] (Table 3), 359 nM.

For `O=C(O)CC[C@H](NC(=O)c1ccc2c(c1)C(=O)c1ccccc1-2)C(=O)NCc1ccccc1` [Example 8IIIII, N^1-benzyl-N^2-[(9-oxo-9H-fluoren-2-yl)carbonyl]-L-α-glutamine], the IC50 in assay [1] (Table 2) stood at 813 nM; in assay [2] (Table 2), 1900 nM.

For the compound `CC(C)(Cc1ccc(Cl)cc1)NC(=O)[C@H](CCC(=O)O)NC(=O)c1ccc(-c2cccc(F)c2F)cc1` [Example 8EEEEEEE, N-[2-(4-chlorophenyl)-1,1-dimethylethyl]-N^2-[(2′,3′-difluorobiphenyl-4-yl)carbonyl]-L-α-glutamine], the values for the IC50 in assay [1] (Table 3) and in assay [2] (Table 3) were 37 nM and 510 nM, respectively.

As for `COc1cccc(COc2ccc(-c3ccc(C(=O)N[C@@H](CCC(=O)O)C(=O)NC(C)(C)Cc4ccccc4)cc3)cc2)c1` [Example 19F, N-(1,1-dimethyl-2-phenylethyl)-N^2-({4′-[(3-methoxybenzyl)oxy]biphenyl-4-yl}carbonyl)-L-α-glutamine], the results for the IC50 in assay [1] (Table 2) and in assay [2] (Table 2) were 68 nM and 163 nM, respectively.

Turning to `COc1cccc(COc2ccc(-c3ccc(C(=O)N[C@@H](CCC(=O)O)C(=O)NCC45CC6CC(CC(C6)C4)C5)cc3)cc2)c1` [Example 19A, N-(1-adamantylmethyl)-N^2-({4′-[(3-methoxybenzyl)oxy]biphenyl-4-yl}carbonyl)-L-α-glutamine], the IC50 was 930 nM in assay [1] (Table 2) and 1020 nM in assay [2] (Table 2).

For the compound `CC(C)(Cc1ccc(Cl)cc1)NC(=O)[C@H](CCC(=O)O)NC(=O)c1ccc(-c2ccc(Cl)cc2)s1` [N-[2-(4-chlorophenyl)-1,1-dimethylethyl]-N^2-{[5-(4-chlorophenyl)-2-thienyl]carbonyl}-L-α-glutamine], the IC50 was below 30 nM in assay [1] (Table 3) and above 300 nM in assay [2] (Table 3).

For `CC(C)(Cc1ccccc1)NC(=O)[C@H](CCC(=O)O)NC(=O)c1ccc(-c2ccncc2)s1` [N-(1,1-dimethyl-2-phenylethyl)-N^2-[(5-pyridin-4-yl-2-thienyl)carbonyl]-L-α-glutamine], the IC50 in assay [1] (Table 3) was below 30 nM; in assay [2] (Table 3), 3300 nM.

Regarding `COc1cccc(COc2cccc(-c3ccc(C(=O)N[C@@H](CCC(=O)O)C(=O)NCc4cc(OC)c(OC)c(OC)c4)cc3)c2)c1` [Example 15M, N^2-({3′-[(3-methoxybenzyl)oxy]biphenyl-4-yl}carbonyl)-N-(3,4,5-trimethoxybenzyl)-L-α-glutamine], the values for the IC50 in assay [1] (Table 3) and in assay [2] (Table 3) were below 30 nM and 789 nM, respectively.

Turning to `O=C(O)CC[C@H](NC(=O)c1ccc(-c2ccccc2)cc1)C(=O)NCCc1ccc(-c2cccs2)cc1` [Example 10D, N^2-(biphenyl-4-ylcarbonyl)-N^1-{2-[4-(2-thienyl)phenyl]ethyl}-L-α-glutamine], the figures for the IC50 in assay [1] (Table 1) and in assay [2] (Table 1) were 480 nM and 3200 nM, respectively.

On to `O=C(O)CC[C@H](NC(=O)c1ccc(-c2ccc(O)cc2)cc1)C(=O)NCC12CC3CC(CC(C3)C1)C2` [Example 17O, N-(1-adamantylmethyl)-N^2-[(4′-hydroxybiphenyl-4-yl)carbonyl]-L-α-glutamine], for which the IC50 in assay [1] (Table 2) is 8500 nM; in assay [2] (Table 2), around 22000 nM.

For `CC(C)(Cc1ccc(Cl)cc1)NC(=O)[C@H](CCC(=O)O)NC(=O)c1ccc(-c2ccc(F)cc2)s1` [N-[2-(4-chlorophenyl)-1,1-dimethylethyl]-N^2-{[5-(4-fluorophenyl)-2-thienyl]carbonyl}-L-α-glutamine], the IC50 in assay [1] (Table 3) is below 30 nM; in assay [2] (Table 3), 30 to 100 nM. The figures for the Ki in assay [1] (Table 3) and in assay [2] (Table 3) were below 3 nM and 87 nM, respectively.

Take `CCCCCNC(=O)[C@H](CCC(=O)O)NC(=O)c1ccc(-c2ccccc2)cc1` [Example 8RRR, N^2-(biphenyl-4-ylcarbonyl)-N^1-pentyl-L-α-glutamine]: the values for the IC50 in assay [1] (Table 1) and in assay [2] (Table 1) were 82 nM and 680 nM, respectively.

Turning to `CC(C)(Cc1ccccc1)NC(=O)[C@H](CCC(=O)O)NC(=O)c1sccc1-c1ccccc1` [Example 8BBBBBBBBBB, N-(1,1-dimethyl-2-phenylethyl)-N^2-[(3-phenyl-2-thienyl)carbonyl]-L-α-glutamine], the IC50 in assay [1] (Table 3) is 22000 nM; in assay [2] (Table 3), above 200000 nM.

With `O=C(O)CC[C@H](NC(=O)C1c2ccccc2-c2ccccc21)C(=O)NCCCCCCO` [Example 8UUUU, N^2-(9H-fluoren-9-ylcarbonyl)-N^1-(6-hydroxyhexyl)-L-α-glutamine], the IC50 was above 17000 nM in assay [1] (Table 2) and around 67000 nM in assay [2] (Table 2).

For the compound `O=C(O)CC[C@H](NC(=O)c1ccc(-c2ccccc2)cc1)C(=O)NCCc1ccc(-c2ccccn2)cc1` [Example 10G, N^2-(biphenyl-4-ylcarbonyl)-N^1-[2-(4-pyridin-2-ylphenyl)ethyl]-L-α-glutamine], the IC50 in assay [1] (Table 1) was found to be 1000 nM; in assay [2] (Table 1) it was 4400 nM.

`CC(C)c1cccc(-c2ccc(C(=O)N[C@@H](CCC(=O)O)C(=O)NC(C)(C)Cc3ccc(F)cc3)cc2)c1` [Example 17FF, N-[2-(4-fluorophenyl)-1,1-dimethylethyl]-N^2-[(3′-isopropylbiphenyl-4-yl)carbonyl]-L-α-glutamine]: the figures for the IC50 in assay [1] (Table 2) and in assay [2] (Table 2) were 690 nM and 13900 nM, respectively.

`CC(C)(Cc1ccc(Cl)cc1)NC(=O)[C@H](CCC(=O)O)NC(=O)c1ccc(-c2ccccc2)o1` [N-[2-(4-chlorophenyl)-1,1-dimethylethyl]-N^2-(5-phenyl-2-furoyl)-L-α-glutamine]: in assay [1] (Table 3, at 16700 (nM)), the “Agg1 % at concentration” value was 60%. Further, the “Agg 2 % at concentration” value in assay [2] (Table 3, at 50000 (nM)) was 50%.

Take `COc1cc(CNC(=O)[C@H](CCC(=O)O)NC(=O)C2c3ccccc3-c3ccccc32)cc(OC)c1OC` [Example 8VVVV, N^2-(9H-fluoren-9-ylcarbonyl)-N^1-(3,4,5-trimethoxybenzyl)-L-α-glutamine]: the IC50 in assay [1] (Table 2) is above 17000 nM; in assay [2] (Table 2), above 67000 nM.

Turning to `Cc1cc(C)cc(-c2ccc(C(=O)N[C@@H](CCC(=O)O)C(=O)NCC34CC5CC(CC(C5)C3)C4)cc2)c1` [Example 17X, N-(1-adamantylmethyl)-N^2-[(3′,5′-dimethylbiphenyl-4-yl)carbonyl]-L-α-glutamine], the IC50 was 2000 nM in assay [1] (Table 2) and around 22000 nM in assay [2] (Table 2).
